According to patent publication US8247211B2, “Glycopeptide antibiotics” (American Cyanamid Company, priority 2001, dated 2012):
≈ marks a conversion by molar mass, not a printed value.

Tests used:
Test in all cases: In vitro antibacterial evaluation: minimum inhibitory concentration (MIC), broth dilution method
Type in all cases: cell-based
Streptococcus sp. = test system: Streptococcus sp.
Method in brief: (§1)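 Values are minimum inhibitory concentrations, meaning the smallest antibiotic concentration that stops growth of the organism. They come from broth dilution in Muller-Hinton II […] per NCCLS guidance (M7-A2), using 5×10^5 CFU/mL and concentrations from 64 to 0.06 μg/mL.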

Staphylococcus sp. = conditions: 18 hours at 35° C.
Method in brief: as §1

Escherichia coli = test system: Escherichia coli
Method in brief: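 NCCLS M7-A2 broth dilution with Mueller-Hinton II, testing 64-0.06 μg/mL antibiotic against 5×10^5 CFU/mL inocula. Test strains include recent methicillin-, penicillin- or vancomycin-resistant clinical isolates. MIC is the lowest concentration preventing growth.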

Enterococcus sp. = test system: Enterococcus sp.
Method in brief: as §1

## CCOc1cc(C2OCC3OC(OC4C(CO)OC(Oc5ccc(CC6NC(=O)C(C(C)c7ccccc7)NC(=O)CNC(=O)C(CO)NC(=O)C(C(O)C7CNC(=N)N7C7OC(CO)C(O)C(O)C7O)NC(=O)C(C(O)C7CNC(=N)N7)NC6=O)cc5)C(O)C4O)C(O)C(O)C3O2)ccc1OC (stereo not drawn) [Example 152, Cyclo[glycyl-β-methylphenylalanyl-O-[4-O-[4,6-O-(3-ethoxy-4-methoxybenzylidene)hexopyranosyl)hexopyranosyl]tyrosyl-3-(2-iminoimidazolidin-4-yl)seryl-3-(3-hexopyranosyl-2-iminoimidazolidin-4-yl)serylseryl]]
Streptococcus sp.; strain ATCC 6301
  MIC Streptococcus pneumoniae (ATCC 6301): 2 mg/L (≈ 1.37 µM)
Streptococcus sp.; strain GC 1894
  MIC Streptococcus pneumoniae (GC 1894): 0.5 mg/L (≈ 0.343 µM)
Streptococcus sp.; strain GC 4563
  MIC Streptococcus pyogenes (GC 4563): 4 mg/L (≈ 2.74 µM)
Streptococcus sp.; strain GC 4564
  MIC Streptococcus agalactiae (GC 4564): 8 mg/L (≈ 5.49 µM)
Streptococcus sp.; strain GC 4565
  MIC Streptococcus pneumoniae (GC 4565): 2 mg/L (≈ 1.37 µM)
Staphylococcus sp.; broth dilution, 5×10^5 CFU/mL
  MIC Coagulase Negative Staphylococcus (GC 4547): 8 mg/L (≈ 5.49 µM)
  MIC Coagulase Negative Staphylococcus (GC 4548): 8 mg/L (≈ 5.49 µM)
  MIC Coagulase Negative Staphylococcus (GC 4549): 8 mg/L (≈ 5.49 µM)
  MIC Coagulase Negative Staphylococcus (GC 4551): 16 mg/L (≈ 11 µM)
  MIC Coagulase Negative Staphylococcus (GC 6257): 8 mg/L (≈ 5.49 µM)
  MIC Staphylococcus aureus (ATCC 29213): 16 mg/L (≈ 11 µM)
  MIC Staphylococcus aureus (GC 1131): 16 mg/L (≈ 11 µM)
  MIC Staphylococcus aureus (GC 3051): 16 mg/L (≈ 11 µM)
  MIC Staphylococcus aureus (GC 3053): 32 mg/L (≈ 22 µM)
  MIC Staphylococcus aureus (GC 4541): 16 mg/L (≈ 11 µM)
  MIC Staphylococcus aureus (GC 4542): 16 mg/L (≈ 11 µM)
  MIC Staphylococcus aureus (GC 4544): 16 mg/L (≈ 11 µM)
  MIC Staphylococcus aureus (GC 4545): 8 mg/L (≈ 5.49 µM)
  MIC Staphylococcus aureus-SMITH (GC 4543): 8 mg/L (≈ 5.49 µM)
  MIC Staphylococcus haemolyticus (GC 4546): 8 mg/L (≈ 5.49 µM)
Staphylococcus sp.; strain ATCC 29213, broth dilution
  MIC Staphylococcus aureus (ATCC 29213): 16 mg/L (≈ 11 µM)
Staphylococcus sp.; strain GC 1131, broth dilution
  MIC Staphylococcus aureus (GC 1131): 16 mg/L (≈ 11 µM)
Staphylococcus sp.; strain GC 3051, broth dilution
  MIC Staphylococcus aureus (GC 3051): 16 mg/L (≈ 11 µM)
Staphylococcus sp.; strain GC 3053, broth dilution
  MIC Staphylococcus aureus (GC 3053): 32 mg/L (≈ 22 µM)
Staphylococcus sp.; strain GC 4541, broth dilution
  MIC Staphylococcus aureus (GC 4541): 16 mg/L (≈ 11 µM)
Staphylococcus sp.; strain GC 4542, broth dilution
  MIC Staphylococcus aureus (GC 4542): 16 mg/L (≈ 11 µM)
Staphylococcus sp.; strain GC 4543, broth dilution
  MIC Staphylococcus aureus-SMITH (GC 4543): 8 mg/L (≈ 5.49 µM)
Staphylococcus sp.; strain GC 4544, broth dilution
  MIC Staphylococcus aureus (GC 4544): 16 mg/L (≈ 11 µM)
Staphylococcus sp.; strain GC 4545, broth dilution
  MIC Staphylococcus aureus (GC 4545): 8 mg/L (≈ 5.49 µM)
Staphylococcus sp.; strain GC 4546, broth dilution
  MIC Staphylococcus haemolyticus (GC 4546): 8 mg/L (≈ 5.49 µM)
Staphylococcus sp.; strain GC 4547, broth dilution
  MIC Coagulase Negative Staphylococcus (GC 4547): 8 mg/L (≈ 5.49 µM)
Staphylococcus sp.; strain GC 4548, broth dilution
  MIC Coagulase Negative Staphylococcus (GC 4548): 8 mg/L (≈ 5.49 µM)
Staphylococcus sp.; strain GC 4549, broth dilution
  MIC Coagulase Negative Staphylococcus (GC 4549): 8 mg/L (≈ 5.49 µM)
Staphylococcus sp.; strain GC 4551, broth dilution
  MIC Coagulase Negative Staphylococcus (GC 4551): 16 mg/L (≈ 11 µM)
Staphylococcus sp.; strain GC 6257, broth dilution
  MIC Coagulase Negative Staphylococcus (GC 6257): 8 mg/L (≈ 5.49 µM)
Escherichia coli; strain ATCC 25922
  MIC Escherichia coli (ATCC 25922): >64 mg/L
Escherichia coli; strain GC 4559
  MIC Escherichia coli (GC 4559): >64 mg/L
Escherichia coli; strain GC 4560
  MIC Escherichi coli (GC 4560): 8 mg/L (≈ 5.49 µM)
Enterococcus sp.; strain ATCC 29212
  MIC Enterococcus faecalis (ATCC 29212): 32 mg/L (≈ 22 µM)
Enterococcus sp.; strain GC 2242
  MIC Enterococcus faecalis (GC 2242): 32 mg/L (≈ 22 µM)
Enterococcus sp.; strain GC 2243
  MIC Enterococcus faecium (GC 2243): 32 mg/L (≈ 22 µM)
Enterococcus sp.; strain GC 2691
  MIC Enterococcus faecalis (GC 2691): 32 mg/L (≈ 22 µM)
Enterococcus sp.; strain GC 3059
  MIC Enterococcus faecalis (GC 3059): 32 mg/L (≈ 22 µM)
Enterococcus sp.; strain GC 4552
  MIC Enterococcus faecalis (GC 4552): 32 mg/L (≈ 22 µM)
Enterococcus sp.; strain GC 4553
  MIC Enterococcus faecalis (GC 4553): 64 mg/L (≈ 43.9 µM)
Enterococcus sp.; strain GC 4554
  MIC Enterococcus faecalis (GC 4554): 32 mg/L (≈ 22 µM)
Enterococcus sp.; strain GC 4556
  MIC Enterococcus faecium (GC 4556): 32 mg/L (≈ 22 µM)
Enterococcus sp.; strain GC 4557
  MIC Enterococcus faecium (GC 4557): 16 mg/L (≈ 11 µM)
Enterococcus sp.; strain GC 4558
  MIC Enterococcus avium (GC 4558): 32 mg/L (≈ 22 µM)
Enterococcus sp.; strain GC 6189
  MIC Enterococcus faecalis (GC 6189): 32 mg/L (≈ 22 µM)

## γ-O-[(Dodecylamino)carbonyl]-cyclo[glycyl-β-methylphenylalanyl-O-(4-O-hexopyranosylhexopyranosyl]tyrosyl-3-(2-iminoimidazolidin-4-yl)seryl-3-(3-hexopyranosyl-2-iminoimidazolidin-4-yl)serylseryl] [Example 254b]
Streptococcus sp.; Streptococcus agalactiae (GC 4564), 18 hours at 35° C.
  MIC Streptococcus agalactiae (GC 4564): <0.5 mg/L
Streptococcus sp.; Streptococcus pneumoniae (GC 4565), 18 hours at 35° C.
  MIC Streptococcus pneumoniae (GC 4565): <0.5 mg/L
Streptococcus sp.; Streptococcus pyogenes (ID-3187), 18 hours at 35° C.
  MIC Streptococcus pyogenes (ID-3187): <0.5 mg/L
Streptococcus sp.; broth dilution, 18 hours at 35° C., strain GC 4564
  MIC Streptococcus agalactiae (GC 4564): <0.5 mg/L
Streptococcus sp.; broth dilution, 18 hours at 35° C., strain GC 4565
  MIC Streptococcus pneumoniae (GC 4565): <0.5 mg/L
Streptococcus sp.; broth dilution, 18 hours at 35° C., strain ID-3187
  MIC Streptococcus pyogenes (ID-3187): <0.5 mg/L
Staphylococcus sp.; Coagulase Negative Staphylococcus (GC 4547)
  MIC Coagulase Negative Staphylococcus (GC 4547): 8 mg/L
Staphylococcus sp.; Coagulase Negative Staphylococcus (GC 4548)
  MIC Coagulase Negative Staphylococcus (GC 4548): 2 mg/L
Staphylococcus sp.; Coagulase Negative Staphylococcus (GC 4549)
  MIC Coagulase Negative Staphylococcus (GC 4549): 4 mg/L
Staphylococcus sp.; Coagulase Negative Staphylococcus (GC 4551)
  MIC Coagulase Negative Staphylococcus (GC 4551): 4 mg/L
Staphylococcus sp.; Coagulase Negative Staphylococcus (ID-3941)
  MIC Coagulase Negative Staphylococcus (ID-3941): 2 mg/L
Staphylococcus sp.; Staphylococcus aureus (ATCC 29213)
  MIC Staphylococcus aureus (ATCC 29213): 8 mg/L
Staphylococcus sp.; Staphylococcus aureus (GC 1131)
  MIC Staphylococcus aureus (GC 1131): 4 mg/L
Staphylococcus sp.; Staphylococcus aureus (GC 4541)
  MIC Staphylococcus aureus (GC 4541): 4 mg/L
Staphylococcus sp.; Staphylococcus aureus (GC 4542)
  MIC Staphylococcus aureus (GC 4542): 8 mg/L
Staphylococcus sp.; Staphylococcus aureus (GC 4544)
  MIC Staphylococcus aureus (GC 4544): 8 mg/L
Staphylococcus sp.; Staphylococcus aureus (GC 4545)
  MIC Staphylococcus aureus (GC 4545): 8 mg/L
Staphylococcus sp.; Staphylococcus aureus-SMITH (GC 4543)
  MIC Staphylococcus aureus-SMITH (GC 4543): 4 mg/L
Staphylococcus sp.; Staphylococcus haemolyticus (GC 4546)
  MIC Staphylococcus haemolyticus (GC 4546): 8 mg/L
Staphylococcus sp.; broth dilution, strain ATCC 29213
  MIC Staphylococcus aureus (ATCC 29213): 8 mg/L
Staphylococcus sp.; broth dilution, strain GC 1131
  MIC Staphylococcus aureus (GC 1131): 4 mg/L
Staphylococcus sp.; broth dilution, strain GC 4541
  MIC Staphylococcus aureus (GC 4541): 4 mg/L
Staphylococcus sp.; broth dilution, strain GC 4542
  MIC Staphylococcus aureus (GC 4542): 8 mg/L
Staphylococcus sp.; broth dilution, strain GC 4543
  MIC Staphylococcus aureus-SMITH (GC 4543): 4 mg/L
Staphylococcus sp.; broth dilution, strain GC 4544
  MIC Staphylococcus aureus (GC 4544): 8 mg/L
Staphylococcus sp.; broth dilution, strain GC 4545
  MIC Staphylococcus aureus (GC 4545): 8 mg/L
Staphylococcus sp.; broth dilution, strain GC 4546
  MIC Staphylococcus haemolyticus (GC 4546): 8 mg/L
Staphylococcus sp.; broth dilution, strain GC 4547
  MIC Coagulase Negative Staphylococcus (GC 4547): 8 mg/L
Staphylococcus sp.; broth dilution, strain GC 4548
  MIC Coagulase Negative Staphylococcus (GC 4548): 2 mg/L
Staphylococcus sp.; broth dilution, strain GC 4549
  MIC Coagulase Negative Staphylococcus (GC 4549): 4 mg/L
Staphylococcus sp.; broth dilution, strain GC 4551
  MIC Coagulase Negative Staphylococcus (GC 4551): 4 mg/L
Staphylococcus sp.; broth dilution, strain ID-3941
  MIC Coagulase Negative Staphylococcus (ID-3941): 2 mg/L
Escherichia coli; Escherichia coli (ATCC 25922), 18 hours at 35° C.
  MIC Escherichia coli (ATCC 25922): 64 mg/L
Escherichia coli; Escherichia coli (GC 4559), 18 hours at 35° C.
  MIC Escherichia coli (GC 4559): 64 mg/L
Escherichia coli; Escherichia coli (GC 4560), 18 hours at 35° C.
  MIC Escherichia coli (GC 4560): 16 mg/L
Enterococcus sp.; Enterococcus avium (GC 4558), 18 hours at 35° C.
  MIC Enterococcus avium (GC 4558): 4 mg/L
Enterococcus sp.; Enterococcus faecalis (ATCC 29212), 18 hours at 35° C.
  MIC Enterococcus faecalis (ATCC 29212): 8 mg/L
Enterococcus sp.; Enterococcus faecalis (GC 2242), 18 hours at 35° C.
  MIC Enterococcus faecalis (GC 2242): 8 mg/L
Enterococcus sp.; Enterococcus faecalis (GC 4552), 18 hours at 35° C.
  MIC Enterococcus faecalis (GC 4552): 8 mg/L
Enterococcus sp.; Enterococcus faecalis (GC 4553), 18 hours at 35° C.
  MIC Enterococcus faecalis (GC 4553): 4 mg/L
Enterococcus sp.; Enterococcus faecalis (GC 4554), 18 hours at 35° C.
  MIC Enterococcus faecalis (GC 4554): 4 mg/L
Enterococcus sp.; Enterococcus faecium (GC 2243), 18 hours at 35° C.
  MIC Enterococcus faecium (GC 2243): 4 mg/L
Enterococcus sp.; Enterococcus faecium (GC 4556), 18 hours at 35° C.
  MIC Enterococcus faecium (GC 4556): 8 mg/L
Enterococcus sp.; Enterococcus faecium (GC 4557), 18 hours at 35° C.
  MIC Enterococcus faecium (GC 4557): 8 mg/L
Enterococcus sp.; broth dilution, 18 hours at 35° C., strain ATCC 29212
  MIC Enterococcus faecalis (ATCC 29212): 8 mg/L
Enterococcus sp.; broth dilution, 18 hours at 35° C., strain GC 2242
  MIC Enterococcus faecalis (GC 2242): 8 mg/L
Enterococcus sp.; broth dilution, 18 hours at 35° C., strain GC 2243
  MIC Enterococcus faecium (GC 2243): 4 mg/L
Enterococcus sp.; broth dilution, 18 hours at 35° C., strain GC 4552
  MIC Enterococcus faecalis (GC 4552): 8 mg/L
Enterococcus sp.; broth dilution, 18 hours at 35° C., strain GC 4553
  MIC Enterococcus faecalis (GC 4553): 4 mg/L
Enterococcus sp.; broth dilution, 18 hours at 35° C., strain GC 4554
  MIC Enterococcus faecalis (GC 4554): 4 mg/L
Enterococcus sp.; broth dilution, 18 hours at 35° C., strain GC 4556
  MIC Enterococcus faecium (GC 4556): 8 mg/L
Enterococcus sp.; broth dilution, 18 hours at 35° C., strain GC 4557
  MIC Enterococcus faecium (GC 4557): 8 mg/L
Enterococcus sp.; broth dilution, 18 hours at 35° C., strain GC 4558
  MIC Enterococcus avium (GC 4558): 4 mg/L
